In patent US6472348B1, “Pyridone derivatives and herbicides” (Kumiai Chemical Industry Co., Ltd., priority 1996, dated 2002):

system: barnyardgrass (Ec); assay: Test Example 1: herbicidal effects by paddy field soil treatment; assay type: in vivo; details: 100 g of the active ingredient per 10 ares, 21st day after the application, index 0-5 of Table 47;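 note: grade of growth control; 5 = at least 90%; 4 = 70 to 90%; 3 = 50 to 70%; 2 = 30 to 50%; 1 = 10 to 30%; 0 = under 10%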
Experimental: (§1) (Test on Herbicidal Effects by Paddy Field Soil Treatment)
(§2) In a plastic pot (surface area: 100 cm^2) filled with paddy field soil, barnyardgrass (Ec), monochoria (Mo) and bulrush (Sc) were sown after puddling and leveling, and flooded to a water depth of 3 cm. […] The dose was 100 g of the active ingredient per 10 ares. The plants were then cultured in a green house, and the evaluation of the herbicidal effects was conducted on the 21st day after the application in accordance with the standards as identified in Table 47.

Structure (SMILES)	Herbicidal effects Ec
C#CC(CC)Oc1cc(Cl)cc(F)c1-c1ccc(C(F)(F)F)n(C)c1=O (stereo not drawn) [1′-6]	5
COC(=O)c1cc(-c2ccc(C(F)(F)F)n(C)c2=O)c(F)cc1Cl [1-157]	5
Cn1c(C(F)(F)F)ccc(-c2c(Cl)cc(Cl)c3oc(C(Br)Br)cc23)c1=O [Compound 4-29]	5

system: bulrush (Sc); assay: as above; assay type: in vivo; details: 100 g of the active ingredient per 10 ares, 21st day after the application, index 0-5 of Table 47;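 note: grade of growth control; 5 = at least 90%; 4 = 70 to 90%; 3 = 50 to 70%; 2 = 30 to 50%; 1 = 10 to 30%; 0 = under 10%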
Experimental: as §1, §2

Structure (SMILES)	Herbicidal effects Sc
C#CC(CC)Oc1cc(Cl)cc(F)c1-c1ccc(C(F)(F)F)n(C)c1=O (stereo not drawn) [1′-6]	5
COC(=O)c1cc(-c2ccc(C(F)(F)F)n(C)c2=O)c(F)cc1Cl [1-157]	5
Cn1c(C(F)(F)F)ccc(-c2c(Cl)cc(Cl)c3oc(C(Br)Br)cc23)c1=O [Compound 4-29]	5

system: monochoria (Mo); assay: as above; assay type: in vivo; details: 100 g of the active ingredient per 10 ares, 21st day after the application, index 0-5 of Table 47;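 note: grade of growth control; 5 = at least 90%; 4 = 70 to 90%; 3 = 50 to 70%; 2 = 30 to 50%; 1 = 10 to 30%; 0 = under 10%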
Experimental: as §1, §2

Structure (SMILES)	Herbicidal effects Mo
C#CC(CC)Oc1cc(Cl)cc(F)c1-c1ccc(C(F)(F)F)n(C)c1=O (stereo not drawn) [1′-6]	5
COC(=O)c1cc(-c2ccc(C(F)(F)F)n(C)c2=O)c(F)cc1Cl [1-157]	5
Cn1c(C(F)(F)F)ccc(-c2c(Cl)cc(Cl)c3oc(C(Br)Br)cc23)c1=O [Compound 4-29]	5

system: Digitaria ciliaris (Di); assay: Test Example 2: herbicidal effects by upland field soil treatment; assay type: in vivo; details: 100 g of the active ingredient per 10 ares, 21st day after the application, index 0-5 of Table 47;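 note: grade of growth control; 5 = at least 90%; 4 = 70 to 90%; 3 = 50 to 70%; 2 = 30 to 50%; 1 = 10 to 30%; 0 = under 10%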
Text: (§3) (Test on Herbicidal Effects by Upland Field Soil Treatment)

Structure (SMILES)	Herbicidal effects Di
COC(=O)c1cc(-c2ccc(C(F)(F)F)n(C)c2=O)c(F)cc1Cl [1-157]	5

same assay, conditions: 100 g of the active ingredient per 10 ares, evaluated on the 21st day after application

Structure (SMILES)	Herbicidal effects Di
C#CC(CC)Oc1cc(Cl)cc(F)c1-c1ccc(C(F)(F)F)n(C)c1=O (stereo not drawn) [1′-6]	5
Cn1c(C(F)(F)F)ccc(-c2c(Cl)cc(Cl)c3oc(C(Br)Br)cc23)c1=O [Compound 4-29]	5

system: barnyardgrass (Ec); assay: as above; assay type: in vivo; details: 100 g of the active ingredient per 10 ares, 21st day after the application, index 0-5 of Table 47
Text: as §3

Structure (SMILES)	Herbicidal effects Ec
COC(=O)c1cc(-c2ccc(C(F)(F)F)n(C)c2=O)c(F)cc1Cl [1-157]	5

same assay, conditions: 100 g of the active ingredient per 10 ares, evaluated on the 21st day after application

Structure (SMILES)	Herbicidal effects Ec
C#CC(CC)Oc1cc(Cl)cc(F)c1-c1ccc(C(F)(F)F)n(C)c1=O (stereo not drawn) [1′-6]	5
Cn1c(C(F)(F)F)ccc(-c2c(Cl)cc(Cl)c3oc(C(Br)Br)cc23)c1=O [Compound 4-29]	5

system: common lambsquarters (Ch); assay: as above; assay type: in vivo; details: 100 g of the active ingredient per 10 ares, 21st day after the application, index 0-5 of Table 47
Text: as §3

Structure (SMILES)	Herbicidal effects Ch
COC(=O)c1cc(-c2ccc(C(F)(F)F)n(C)c2=O)c(F)cc1Cl [1-157]	5

same assay, conditions: 100 g of the active ingredient per 10 ares, evaluated on the 21st day after application

Structure (SMILES)	Herbicidal effects Ch
C#CC(CC)Oc1cc(Cl)cc(F)c1-c1ccc(C(F)(F)F)n(C)c1=O (stereo not drawn) [1′-6]	5
Cn1c(C(F)(F)F)ccc(-c2c(Cl)cc(Cl)c3oc(C(Br)Br)cc23)c1=O [Compound 4-29]	5

system: pale smartweed (Po); assay: as above; assay type: in vivo; details: 100 g of the active ingredient per 10 ares, 21st day after the application, index 0-5 of Table 47
Text: as §3

Structure (SMILES)	Herbicidal effects Po
COC(=O)c1cc(-c2ccc(C(F)(F)F)n(C)c2=O)c(F)cc1Cl [1-157]	5

same assay, conditions: 100 g of the active ingredient per 10 ares, evaluated on the 21st day after application

Structure (SMILES)	Herbicidal effects Po
C#CC(CC)Oc1cc(Cl)cc(F)c1-c1ccc(C(F)(F)F)n(C)c1=O (stereo not drawn) [1′-6]	5
Cn1c(C(F)(F)F)ccc(-c2c(Cl)cc(Cl)c3oc(C(Br)Br)cc23)c1=O [Compound 4-29]	5

system: rice flatsedge (Ci); assay: as above; assay type: in vivo; details: 100 g of the active ingredient per 10 ares, 21st day after the application, index 0-5 of Table 47
Text: as §3

Structure (SMILES)	Herbicidal effects Ci
COC(=O)c1cc(-c2ccc(C(F)(F)F)n(C)c2=O)c(F)cc1Cl [1-157]	5

same assay, conditions: 100 g of the active ingredient per 10 ares, evaluated on the 21st day after application

Structure (SMILES)	Herbicidal effects Ci
C#CC(CC)Oc1cc(Cl)cc(F)c1-c1ccc(C(F)(F)F)n(C)c1=O (stereo not drawn) [1′-6]	5
Cn1c(C(F)(F)F)ccc(-c2c(Cl)cc(Cl)c3oc(C(Br)Br)cc23)c1=O [Compound 4-29]	5

system: slender amaranth (Am); assay: as above; assay type: in vivo; details: 100 g of the active ingredient per 10 ares, 21st day after the application, index 0-5 of Table 47
Text: as §3

Structure (SMILES)	Herbicidal effects Am
COC(=O)c1cc(-c2ccc(C(F)(F)F)n(C)c2=O)c(F)cc1Cl [1-157]	5

same assay, conditions: 100 g of the active ingredient per 10 ares, evaluated on the 21st day after application

Structure (SMILES)	Herbicidal effects Am
C#CC(CC)Oc1cc(Cl)cc(F)c1-c1ccc(C(F)(F)F)n(C)c1=O (stereo not drawn) [1′-6]	5
Cn1c(C(F)(F)F)ccc(-c2c(Cl)cc(Cl)c3oc(C(Br)Br)cc23)c1=O [Compound 4-29]	5

system: Diaitaria ciliaris (Di); assay: Test Example 3: herbicidal effects by upland field foliage treatment; assay type: in vivo; design: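 grade of growth control; 5 = at least 90%; 4 = 70 to 90%; 3 = 50 to 70%; 2 = 30 to 50%; 1 = 10 to 30%; 0 = under 10%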; details: 100 g active ingredient per 10 ares, evaluated 14th day after treatment
Experimental: (§4) (Test on Herbicidal Effects by Upland Field Foliage Treatment)
(§5) In a plastic pot (surface area: 120 cm^2) filled with sand, barnyardgrass (Ec), Diaitaria ciliaris (Di), pale smartweed (Po), slender amaranth (Am), common lambsquarters (Ch) and rice flatsedge (Ci) were sown and covered with soil and were cultured in a green house for 2 weeks. […] The plants were then cultured in the green house, and the evaluation of the herbicidal effects was conducted on the 14th day after the treatment in accordance with the standards as identified in Table 47. Symbol—represents “not tested”.

Structure (SMILES)	Herbicidal effects Di
C#CC(CC)Oc1cc(Cl)cc(F)c1-c1ccc(C(F)(F)F)n(C)c1=O (stereo not drawn) [1′-6]	5
Cn1c(C(F)(F)F)ccc(-c2c(Cl)cc(Cl)c3oc(C(Br)Br)cc23)c1=O [Compound 4-29]	5

same assay, conditions: 100 g of the active ingredient per 10 ares, evaluated on the 14th day after treatment

Structure (SMILES)	Herbicidal effects Di
COC(=O)c1cc(-c2ccc(C(F)(F)F)n(C)c2=O)c(F)cc1Cl [1-157]	5

system: barnyardgrass (Ec); assay: as above; assay type: in vivo; design: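 grade of growth control; 5 = at least 90%; 4 = 70 to 90%; 3 = 50 to 70%; 2 = 30 to 50%; 1 = 10 to 30%; 0 = under 10%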; details: 100 g active ingredient per 10 ares, evaluated 14th day after treatment
Experimental: as §4, §5

Structure (SMILES)	Herbicidal effects Ec
C#CC(CC)Oc1cc(Cl)cc(F)c1-c1ccc(C(F)(F)F)n(C)c1=O (stereo not drawn) [1′-6]	5
Cn1c(C(F)(F)F)ccc(-c2c(Cl)cc(Cl)c3oc(C(Br)Br)cc23)c1=O [Compound 4-29]	5

same assay, conditions: 100 g of the active ingredient per 10 ares, evaluated on the 14th day after treatment

Structure (SMILES)	Herbicidal effects Ec
COC(=O)c1cc(-c2ccc(C(F)(F)F)n(C)c2=O)c(F)cc1Cl [1-157]	5

system: common lambsquarters (Ch); assay: as above; assay type: in vivo; design: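 grade of growth control; 5 = at least 90%; 4 = 70 to 90%; 3 = 50 to 70%; 2 = 30 to 50%; 1 = 10 to 30%; 0 = under 10%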; details: 100 g active ingredient per 10 ares, evaluated 14th day after treatment
Experimental: as §4, §5

Structure (SMILES)	Herbicidal effects Ch
C#CC(CC)Oc1cc(Cl)cc(F)c1-c1ccc(C(F)(F)F)n(C)c1=O (stereo not drawn) [1′-6]	5
Cn1c(C(F)(F)F)ccc(-c2c(Cl)cc(Cl)c3oc(C(Br)Br)cc23)c1=O [Compound 4-29]	5

same assay, conditions: 100 g of the active ingredient per 10 ares, evaluated on the 14th day after treatment

Structure (SMILES)	Herbicidal effects Ch
COC(=O)c1cc(-c2ccc(C(F)(F)F)n(C)c2=O)c(F)cc1Cl [1-157]	5

system: pale smartweed (Po); assay: as above; assay type: in vivo; design: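 grade of growth control; 5 = at least 90%; 4 = 70 to 90%; 3 = 50 to 70%; 2 = 30 to 50%; 1 = 10 to 30%; 0 = under 10%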; details: 100 g active ingredient per 10 ares, evaluated 14th day after treatment
Experimental: as §4, §5

Structure (SMILES)	Herbicidal effects Po
C#CC(CC)Oc1cc(Cl)cc(F)c1-c1ccc(C(F)(F)F)n(C)c1=O (stereo not drawn) [1′-6]	5
Cn1c(C(F)(F)F)ccc(-c2c(Cl)cc(Cl)c3oc(C(Br)Br)cc23)c1=O [Compound 4-29]	5

same assay, conditions: 100 g of the active ingredient per 10 ares, evaluated on the 14th day after treatment

Structure (SMILES)	Herbicidal effects Po
COC(=O)c1cc(-c2ccc(C(F)(F)F)n(C)c2=O)c(F)cc1Cl [1-157]	5

system: rice flatsedge (Ci); assay: as above; assay type: in vivo; design: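 grade of growth control; 5 = at least 90%; 4 = 70 to 90%; 3 = 50 to 70%; 2 = 30 to 50%; 1 = 10 to 30%; 0 = under 10%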; details: 100 g active ingredient per 10 ares, evaluated 14th day after treatment
Experimental: as §4, §5

Structure (SMILES)	Herbicidal effects Ci
C#CC(CC)Oc1cc(Cl)cc(F)c1-c1ccc(C(F)(F)F)n(C)c1=O (stereo not drawn) [1′-6]	5
Cn1c(C(F)(F)F)ccc(-c2c(Cl)cc(Cl)c3oc(C(Br)Br)cc23)c1=O [Compound 4-29]	5

same assay, conditions: 100 g of the active ingredient per 10 ares, evaluated on the 14th day after treatment

Structure (SMILES)	Herbicidal effects Ci
COC(=O)c1cc(-c2ccc(C(F)(F)F)n(C)c2=O)c(F)cc1Cl [1-157]	5

system: slender amaranth (Am); assay: as above; assay type: in vivo; design: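 grade of growth control; 5 = at least 90%; 4 = 70 to 90%; 3 = 50 to 70%; 2 = 30 to 50%; 1 = 10 to 30%; 0 = under 10%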; details: 100 g active ingredient per 10 ares, evaluated 14th day after treatment
Experimental: as §4, §5

Structure (SMILES)	Herbicidal effects Am
C#CC(CC)Oc1cc(Cl)cc(F)c1-c1ccc(C(F)(F)F)n(C)c1=O (stereo not drawn) [1′-6]	5
Cn1c(C(F)(F)F)ccc(-c2c(Cl)cc(Cl)c3oc(C(Br)Br)cc23)c1=O [Compound 4-29]	5

same assay, conditions: 100 g of the active ingredient per 10 ares, evaluated on the 14th day after treatment

Structure (SMILES)	Herbicidal effects Am
COC(=O)c1cc(-c2ccc(C(F)(F)F)n(C)c2=O)c(F)cc1Cl [1-157]	5
